{
  "source": "patent US20060094676A1",
  "about": "“Compositions and methods for treating cancer using compositions comprising an inhibitor of endothelin receptor activity” (priority 2004, published 2006)",
  "test_system": "VEGF",
  "assay": "Real-time RT-PCR of VEGF transcripts",
  "format": "cell-based, human",
  "details": "BQ123 in combination with BQ788; melanoma cell lines of the study; data not shown",
  "protocol": "Equal amounts of RNA from cells that were treated with BQ788 for 3 days were subjected to real-time RT-PCR analysis for the detection VEGF (A), HIF-1α (B) and Gravin (C) transcripts. Differences in expression levels are shown as x fold change and are statistically significant (p<0.05) unless a column in marked as non significant (N.S.). Sections of two representative tumors derived from a human melanoma cell line grown in nude mice and injected either with vehicle (D) or BQ788 (E) were stained with anti CD-31 to highlight blood vessels (brown staining, Lahav et al, 1999).\nRNA was prepared from the different cell lines in different culture conditions using SV total RNA isolation kit (Promega) according to the manufacturer's protocol. For each sample RNA concentration was determined using the total RNA nano procedure of an Agilent bioanalyzer. A stock of SK-MEL-28 RNA aliquots was prepared containing 10, 20, 50, 100, 200, 500 and 1000 ng/12 μl for use as a standard curve and kept in −80° C. For the experimental unknown samples, a stock of 100 ng/12 μl RNA aliquots from each cell line and condition was prepared and stored at −80° C. For each real-time experiment one series of standard curve and unknown experimental series of aliquots was put on ice for use. Complementary DNA was prepared by adding to each tube 0.5 μl of random hexamers (Promega) and 1 μl of 10 mM dNTP mix (Promega) and incubating at 65° C. for 5 min. 4 μl of 5× M-MLV buffer (Promega), 1 μl of the RNase inhibitor RNasin (Promega) and 1 μl of M-MLV RT RNase H (Promega) were then added and the solution was incubated at 42° C. for 50 min followed by 15 min at 70° C. For real time reactions 15 μl of each cDNA sample were transferred to 3 wells in a 386 well plate. To each well we added 10 μl of TaqMan universal PCR master mix (Applied Biosystems), 1 μl of primers+probe mix (Assays-on-Demand from Applied Biosystems: EDNRB Hs00240747, BCL-2A1 Hs00187845, PARP-3 Hs00154151, VEGF Hs00173626, HIF-1α Hs00153153 and Gravin Hs00374507) and 4 μl of nuclease free water (Promega). Wells containing water instead of cDNA served as negative controls. The samples were subjected to 40 cycles of 15 sec at 95° C. and 1 min at 60° C. A standard curve of Ct versus RNA quantity was established and accordingly the Ct in the unknown samples was correlated to quantity of transcript.\nReal-time PCR analysis confirmed that VEGF expression levels increased 18-fold in BQ788 treated LN-met cells and 65-fold in SK-MEL-28 cells, compared to only 2-fold in primary melanoma, and no change in the Cut-met line (FIG. 5). The changes in VEGF expression levels can be explained, at least in part, by changes in the expression levels of its known regulator hypoxia inducible factor-1 oc (HIF-1α) (Maxwell, et al., Oxygen sensors and angiogenesis, Semin. Cell Dev. Biol., 13:29-37 (2002)). […]",
  "note": "Non-standard residues stand in square brackets, D forms with d. Residues, ends and D or L forms follow the SMILES beside them.",
  "data": [
    {"smiles": "CC(C)C[C@@H]1NC(=O)[C@@H](C(C)C)NC(=O)[C@@H]2CCCN2C(=O)[C@@H](CC(=O)O)NC(=O)[C@@H](Cc2c[nH]c3ccccc23)NC1=O", "note": "[BQ123] (cyclo(L[dW][dD]P[dV]))", "values": [
      {"measurement": "VEGF RNA levels compared to BQ788 alone", "result": "did not result in changes"}
    ]}
  ]
}
